Laboratory results from ChEMBL document CHEMBL1153238, “Spirodiketopiperazine-based CCR5 antagonists: Improvement of their pharmacokinetic profiles” (Bioorg Med Chem Lett, 2010).

What was measured:
[1] = tested on: Human immunodeficiency virus 1; assay: Antiviral activity against HIV1 Ba-L(R5) infected in human PBMC by p24 antigen capture assay; details: Human immunodeficiency virus 1, Ba-L(R5)
[2] = molecular target: C-C chemokine receptor type 5 (Homo sapiens, UniProt P51681); assay: Antagonist activity at human CCR5 receptor overexpressed in CHO cells assessed as inhibition of MIP-1-alpha-induced calcium mobilization; assay type: functional, cell-based
C-C chemokine receptor type 5, sequence (P51681 whole entry): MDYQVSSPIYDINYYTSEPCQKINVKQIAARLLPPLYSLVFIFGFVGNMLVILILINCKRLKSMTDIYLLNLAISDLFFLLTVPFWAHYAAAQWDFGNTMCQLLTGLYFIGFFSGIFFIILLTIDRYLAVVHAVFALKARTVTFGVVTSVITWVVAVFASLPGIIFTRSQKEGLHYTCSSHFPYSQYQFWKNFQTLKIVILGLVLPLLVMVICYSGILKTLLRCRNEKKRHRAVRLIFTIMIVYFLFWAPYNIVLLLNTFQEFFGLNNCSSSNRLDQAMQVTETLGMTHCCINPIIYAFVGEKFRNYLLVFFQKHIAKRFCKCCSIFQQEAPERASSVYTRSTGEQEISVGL

Rattus norvegicus [3] = assay: Half life in rat at 30 mg/kg, iv; assay type: ADME, organism-based; design: dose 30 mg/kg, route intravenous; details: in vivo
Rattus norvegicus [4] = assay: Bioavailability in rat at 30 mg/kg, po administered as single dose; assay type: ADME, organism-based; details: in vivo
Liver microsomes = assay: Metabolic stability in rat liver microsomes assessed as compound remaining after 15 mins; assay type: ADME, Microsome; details: 0.25 h
[5] = Solubility of the compound; assay type: physicochemical
Rattus norvegicus [6] = assay: Half life in rat at 30 mg/kg, po administered as single dose; assay type: ADME, organism-based; design: dose 30 mg/kg, route oral; details: in vivo
Rattus norvegicus [7] = assay: AUC (0 to infinity) in rat at 30 mg/kg, iv; assay type: ADME, organism-based, Plasma; design: time infinity, dose 30 mg/kg, route intravenous; details: in vivo
[8] = Cmax in rat at 30 mg/kg, po administered as single dose; assay type: ADME, organism-based; design: dose 30 mg/kg, route oral; details: in vivo
Rattus norvegicus [9] = assay: AUC (0 to infinity) in rat at 30 mg/kg, po administered as single dose; assay type: ADME, organism-based, Plasma; design: time infinity, dose 30 mg/kg, route oral; details: in vivo

For Cc1c(O)cccc1C(=O)N[C@@H](CSc1ccccc1)[C@H](O)CN1C[C@H]2CCCC[C@H]2C[C@H]1C(=O)NC(C)(C)C, the IC50 [1] was 12 nM.

With CCCCN1C(=O)C(CC(C)C)NC(=O)C12CCN(Cc1ccc3c(c1)OCCO3)CC2 (racemic) the IC50 [2] was 180 nM.

For CCCCN1C(=O)C(CC2CCCCC2)NC(=O)C12CCN(Cc1ccc(Oc3ccccc3)cc1)CC2.Cl (racemic), the t1/2 (Rattus norvegicus [3]) was 0.332 h, the F (Rattus norvegicus [4]) was 1.9% and the Stability (Liver microsomes) was 33%. The solubility [5] was < 5 µM, the t1/2 (Rattus norvegicus [6]) was 1.72 h and the AUC (Rattus norvegicus [7]) was 400 ng·h/mL. It also gave a Cmax [8] of 16.7 ng/mL and an AUC (Rattus norvegicus [9]) of 74.4 ng·h/mL.
